Reference: patent US20070292396A1, “COMBINATION THERAPY WITH ONCOLYTIC ADENOVIRUS” (priority 2006, published 2007)
Read-outs that look alike come from different tables or passages of the source.

Columns and labels:
[1] = test system: U-87 MG and U-251 MG human glioma cells; test: Cell cycle analysis (DNA content, flow cytometry), Delta-24 and CPT-11; type: cell-based; settings: CPT-11 4 μmol/L, alone or 48 hours after 10 MOIs Delta-24
Procedure: (§1) Cell cycle analysis. The DNA content was measured in samples of 10^6 cells that had been infected with 10 MOIs of Delta-24 or UVi Delta-24 or had been mock infected. Forty-eight hours later, cultures were treated with CPT-11 (4 μmol/L) or vehicle. Cells were trypsinized 3 to 5 days after drug treatment, fixed in 70% ice-cold ethanol, and incubated with propidium iodide (5 μg/mL) and RNase A (1 μg/mL) for 20 minutes at 37° C. All DNA content measurements were done with an EPICS XL-MCL cytometer (Coulter Corp., Hialeah, Fla.) equipped with an air-cooled argon ion laser emitting 488 nm at 15 mW. A multicycle program (Phoenix Flow System; Phoenix Controls Corp., San Diego, Calif.) was used for data analysis. Cell viability assays. The chemosensitivity of the treated glioma cells was assessed by using the tetrazolium salt 3-(4,5-dimethylthiazol-2-yl)-2,5-diphenyltetrazolium bromide (Sigma-Aldrich) to measure cell viability. For this assay, 2×10^3 cells per well were seeded in 96-well microtiter plates and infected 24 hours later with Delta-24 (at 1, 2.5, 5, or 10 MOs) or Uvi Delta-24 (10 MOs) or were mock infected. […] The plates were then incubated for an additional 4 hours and then read on a Spectramax 190 microplate reader (Molecular Devices, Sunnyvale, Calif.) at a test wavelength of 570 nm.

U-251 MG cells = test: Cell viability assay (MTT), CPT-11 after adenoviral infection; type: cell-based; settings: Homo sapiens, U-251, 48 h, CPT-11 added 48 hours later
Procedure: (§2) Cell cycle analysis. The DNA content was measured in samples of 10^6 cells that had been infected with 10 MOIs of Delta-24 or UVi Delta-24 or had been mock infected. Forty-eight hours later, cultures were treated with CPT-11 (4 μmol/L) or vehicle. Cells were trypsinized 3 to 5 days after drug treatment, fixed in 70% ice-cold ethanol, and incubated with propidium iodide (5 μg/mL) and RNase A (1 μg/mL) for 20 minutes at 37° C. All DNA content measurements were done with an EPICS XL-MCL cytometer (Coulter Corp., Hialeah, Fla.) equipped with an air-cooled argon ion laser emitting 488 nm at 15 mW. A multicycle program (Phoenix Flow System; Phoenix Controls Corp., San Diego, Calif.) was used for data analysis. Cell viability assays. The chemosensitivity of the treated glioma cells was assessed by using the tetrazolium salt 3-(4,5-dimethylthiazol-2-yl)-2,5-diphenyltetrazolium bromide (Sigma-Aldrich) to measure cell viability. For this assay, 2×10^3 cells per well were seeded in 96-well microtiter plates and infected 24 hours later with Delta-24 (at 1, 2.5, 5, or 10 MOs) or Uvi Delta-24 (10 MOs) or were mock infected. Forty-eight hours after adenoviral treatment, the cells were treated with various concentrations of CPT-11. Triplicate wells were used for each condition. Sixteen wells seeded with untreated glioma cells were used as a viability control, and 16 wells containing only complete medium were used as a control for nonspecific dye reduction. Medium was removed 72 hours after drug treatment, and 100 μL 3-(4,5-dimethylthiazol-2-yl)-2,5-diphenyltetrazolium bromide solution (1 mg/mL) was added to each well. The plates were then incubated for an additional 4 hours and then read on a Spectramax 190 microplate reader (Molecular Devices, Sunnyvale, Calif.) at a test wavelength of 570 nm.

U-87 MG cells = test: as above; type: cell-based; settings: Homo sapiens, 48 h
Procedure: as §2

[2] = test system: U-87 MG and U-251 MG glioma cells; test: Cell viability assay (MTT), CPT-11 and Delta-24, results stated for both cell lines; type: cell-based, human
Procedure: as §1, with “viability. […] Forty-eight hours after adenoviral treatment, the” for “viability. For this assay, 2×10^3”, “cells” for “cells per well”, “were treated” for “were seeded in 96-well microtiter plates and infected 24 hours later”, “with various concentrations of CPT-11. Triplicate wells” for “with Delta-24 (at 1, 2.5, 5, or 10 MOs) or Uvi Delta-24 (10 MOs) or”, “were used for each condition.” for “were mock infected.”

[3] = test system: U-87 MG human glioma xenograft; test: Intracranial human glioma xenograft, Delta-24/CPT-11 sequential treatment; type: in vivo, athymic mice; settings: Delta-24 1.5×10^8 viral particles intratumoral day 3; CPT-11 5 mg/kg i.p. days 7, 12, 20; control median survival 27 days
Procedure: Animal model. To assess the potential therapeutic relevance of the findings from the in vitro studies, we tested the Delta-24/CPT-11 sequential treatment in an in vivo model of a human glioma xenograft implanted intracranially. The U-87 MG cell line was selected as an exemplary cell line because it produces gliomas in nude mice with highly predictable growth kinetics and well-characterized pathologic features (Lal et al., 2000). To perform a reliable multiple-dose experiment, an implantable guide-screw system was developed that allows for multiple, precise intratumoral administrations of a therapeutic agent(s) (Lal et al., 2000) and has been validated for testing the antiglioma effect of Delta-24 (Fueyo et al., 2003). In this study, 5×10^5 cells of the U-87 MG human glioma cell line were engrafted in the caudate nucleus of athymic mice (Harlan- Sprague-Dawley, Inc., Indianapolis, Ind.). On day 3 after cell implantation, animals were treated with a single intratumoral injection of Delta-24 or UVi Delta-24 (1.5×10^8 viral particles in 5 μL). […] H&E-stained slides were analyzed for evidence of tumor, necrosis, and viral nuclear inclusions. […]
Statistical analyses. […] The in vivo anticancer effect of different treatments was assessed by plotting survival curves according to the Kaplan-Meier method, and groups were compared using the log-rank test.

U87-MG xenografts = test: Intracranial glioma xenograft, ICOVIR-5 in combination with RAD001 or TMZ; type: in vivo, athymic mice; settings: ICOVIR-5 3×10^7 pfu/mouse intratumoral day 3, 5, 7; RAD001 5 mg/kg/d; TMZ 7.5 mg/kg/5 days; control 30.5 days
Procedure: Animal Studies. U87 MG human glioma cells (5×10^5) were engrafted into the caudate nucleus of athymic mice using a guide-screw system, as previously described (Lal, 2000). The inventors performed three independent experiments using 10 animals per group in each experiment. On days 3, 5, and 7 after implantation of tumor cells, animals were treated with 5 μl intratumoral injections of ICOVIR-5, PBS or adenovirus control (all 3×10^8 pfu/ml). Animals showing general or local symptoms of toxicity were killed. Surviving animals were killed 140 days after tumor implantation. Brains were then removed, fixed in 4% formaldehyde for 24 hours at room temperature, and embedded in paraffin. Hematoxylin-and-eosin-stained sections were evaluated for evidence of tumor, necrosis, and viral nuclear inclusions. The largest (a) and the smallest (b) diameters of the tumors were measures, and these measurements were used in the calculation of tumor volume using the formula a×b2×0.4 (Attia, 1966). […]
Statistical Analysis. […] Data are expressed as mean±SD or 95% confidence intervals (CIs). The in vivo cytopathic effect of ICOVIR-5 on human glioma xenografts was assessed by plotting survival curves according to the Kaplan-Meier method. […]

U-87 MG cell line = test: In vitro combination of ICOVIR-5 with TMZ or RAD001; type: cell-based, human

Row | Compound | cells in the G2-M phase [1] | IC50 (U-251 MG cells; read-out: IC50 dose of CPT-11, U-251 MG cells infected with Delta-24 at 10 MOIs) | IC50 (U-251 MG cells; read-out: IC50 dose of CPT-11, UVi Delta-24-infected U-251 MG cells) | IC50 (U-87 MG cells; read-out: IC50 dose of CPT-11, U-87 MG cells infected with Delta-24 at 10 MOIs, CPT-11 added 48 hours later) | IC50 (U-87 MG cells; read-out: IC50 dose of CPT-11, U-87 MG cells infected with UVi Delta-24, CPT-11 added 48 hours later) | IC50 ([2]; Homo sapiens, read-out: IC50 for CPT-11, both U-87 MG and U-251 MG cells infected with 2 MOIs of Delta-24) | inhibition of cell proliferation ([2]; both cell lines, CPT-11 alone) | extension of survival (average) over control [3] | mean survival (U87-MG xenografts) | effect of drug on adenoviral replication in vitro (fiber expression, western blot and RT-QT-PCR) (U-87 MG cell line)
1 | CCc1c2c(nc3ccc(OC(=O)N4CCC(N5CCCCC5)CC4)cc13)-c1cc3c(c(=O)n1C2)COC(=O)[C@]3(O)CC [CPT-11, irinotecan] | > 55 % of the cells in culture | 1000 nM | 7200 nM | 1500 nM | 3400 nM | 2500 nM | inhibited cell proliferation in a concentration dependent fashion | 4 days | – | –
2 | Cn1nnc2c(C(N)=O)ncn2c1=O [TMZ, temozolomide] | – | – | – | – | – | – | – | – | 35.5 days | –
3 | CO[C@H]1C[C@@H]2CC[C@@H](C)[C@@](O)(O2)C(=O)C(=O)N2CCCC[C@H]2C(=O)O[C@H]([C@H](C)C[C@@H]2CC[C@@H](OCCO)[C@H](OC)C2)CC(=O)[C@H](C)/C=C(\C)[C@@H](O)[C@@H](OC)C(=O)[C@H](C)C[C@H](C)/C=C/C=C/C=C/1C [RAD001] | – | – | – | – | – | – | – | – | 49 days | neither RAD001 nor TMZ suppressed adenoviral replication in vitro
